Assay results: patent US11840686B2, “Modulation of prekallikrein (PKK) expression” (Ionis Pharmaceuticals, Inc., priority 2013, dated 2023)
Strand notation (5' to 3'): a small letter for the sugar, then the base; units joined by * are phosphorothioate-linked, units joined directly phosphodiester-linked; [ ] holds rarer units or linkages, { } end groups; capitals alone tell only the bases. e = 2'-O-(2-methoxyethyl) (MOE); k = constrained ethyl (cEt); [5mC] = 5-methylcytosine; d = 2'-deoxy (DNA)

System: human PKK mRNA
Assay: Antisense inhibition of human PKK mRNA in HepaRG cells, 1,000 nM, MOE/deoxy/cEt oligonucleotides (Example 3)
Type: cell-based
Settings: HepaRG cells, 1,000 nM antisense oligonucleotide, Table 29
Method: Additional antisense oligonucleotides were designed targeting a PKK nucleic acid and were tested for their effects on PKK mRNA in vitro.
The chimeric antisense oligonucleotides in the tables below were designed as deoxy, MOE and cEt gapmers. The gapmers are 16 nucleosides in length wherein the nucleoside have either a MOE sugar modification, a cEt sugar modification, or a deoxy modification. The ‘Chemistry’ column describes the sugar modifications of each oligonucleotide. ‘k’ indicates an cEt sugar modification; the number indicates the number of deoxynucleosides; otherwise, indicates a deoxynucleoside; and ‘e’ indicates a 2′-O-methoxyethyl modification. The internucleoside linkages throughout each gapmer are phosphorothioate linkages. All cytosine residues throughout each oligonucleotide are 5-methylcytosines. “Start site” indicates the 5′-most nucleoside to which the gapmer is targeted in the human gene sequence. “Stop site” indicates the 3′-most nucleoside to which the gapmer is targeted in the human gene sequence.
Cultured HepaRG™ cells at a density of 20,000 cells per well were transfected using electroporation with 1,000 nM antisense oligonucleotide. After a treatment period of approximately 24 hours, RNA was isolated from the cells and PKK mRNA levels were measured by quantitative real-time PCR. Human primer probe set RTS3454 was used to measure mRNA levels. ISIS 531231 was also included in this assay. PKK mRNA levels were adjusted according to total RNA content, as measured by RIBOGREEN®. The antisense oligonucleotides were tested in a series of experiments that had similar culture conditions. Results are presented as percent inhibition of PKK, relative to untreated control cells.

Substance	% inhibition
548545 (antisense e[5mC]*eT*k[5mC]*dT*dT*d[5mC]*dG*d[5mC]*dA*dT*dG*dG*dA*k[5mC]*kA*e[5mC]) [compound 548545]	46%
548609 (antisense eG*eA*kT*d[5mC]*dG*dG*dT*dG*dG*dT*dG*dG*dG*kA*kT*eT) [compound 548609]	30%
548542 (antisense eG*e[5mC]*kG*d[5mC]*d[5mC]*dA*dT*d[5mC]*d[5mC]*dT*dT*d[5mC]*dA*kA*kT*e[5mC]) [compound 548542]	7%
548585 (eT*eA*kG*dG*d[5mC]*dA*d[5mC]*dA*dG*dA*d[5mC]*dA*dA*k[5mC]*k[5mC]*eT; antisense) [compound 548585]	33%
548546 (antisense eG*e[5mC]*k[5mC]*d[5mC]*dA*dA*dG*d[5mC]*d[5mC]*dT*dA*d[5mC]*dA*kT*kG*e[5mC]) [compound 548546]	35%

Same assay, conditions: HepaRG cells, electroporation with 1,000 nM antisense oligonucleotide, approx. 24 hours, PKK mRNA by RT-PCR (RTS3454), relative to untreated control cells; Table 25 experiment

Substance	% inhibition
548164 (eG*eA*k[5mC]*d[5mC]*dT*d[5mC]*dG*d[5mC]*dA*dT*dT*dG*dT*k[5mC]*kA*eG; antisense) [compound 548164]	40%
548221 (eA*e[5mC]*kT*d[5mC]*d[5mC]*dA*dG*d[5mC]*dA*dG*dA*dA*dA*kT*k[5mC]*e[5mC]; antisense) [compound 548221]	49%
548178 (eG*eA*kG*dA*dT*d[5mC]*dT*d[5mC]*dA*dG*dT*dT*dG*k[5mC]*kG*eA; antisense) [compound 548178]	54%
548203 (eT*eG*kA*d[5mC]*dT*dA*dG*dT*dG*dA*dA*dT*dG*kG*k[5mC]*eT; antisense) [compound 548203]	73%

Same assay, conditions: HepaRG cells, electroporation with 1,000 nM antisense oligonucleotide, approx. 24 hours, PKK mRNA by RT-PCR (RTS3454), relative to untreated control cells; Table 26 experiment

Substance	% inhibition
548299 (e[5mC]*eA*kT*dT*dG*dT*dG*d[5mC]*dT*d[5mC]*dA*dA*d[5mC]*kT*kG*eA; antisense) [compound 548299]	35%
548286 (antisense eG*eG*kG*dA*d[5mC]*dT*dA*d[5mC]*dA*dT*dG*d[5mC]*dA*kA*kT*eA) [compound 548286]	47%
548253 (antisense eT*eA*k[5mC]*dT*d[5mC]*dG*d[5mC]*d[5mC]*dT*dT*dT*dG*dT*kG*kA*eT) [compound 548253]	8%
548301 (e[5mC]*e[5mC]*kT*dA*dG*dT*dA*d[5mC]*dA*dA*dA*dG*dT*kG*kG*e[5mC]; antisense) [compound 548301]	65%
548298 (eG*eG*kA*d[5mC]*dA*dA*dT*dA*dT*dG*dT*d[5mC]*dT*k[5mC]*k[5mC]*eT; antisense) [compound 548298]	0%

Same assay, conditions: HepaRG cells, electroporation with 1,000 nM antisense oligonucleotide, approximately 24 hours, primer probe set RTS3454, relative to untreated control cells; experiment of Table 23

Substance	% inhibition
547944 (eA*e[5mC]*kT*dT*dG*dG*dT*dG*dT*dG*d[5mC]*d[5mC]*dA*k[5mC]*kT*eT; antisense) [compound 547944]	54%
547954 (eT*eA*kA*dA*dA*dG*dG*d[5mC]*dT*dA*dT*dA*dT*k[5mC]*k[5mC]*eA; antisense) [compound 547954]	36%
547995 (antisense eG*eT*kG*dT*d[5mC]*d[5mC]*d[5mC]*dA*dT*dA*d[5mC]*dG*d[5mC]*kA*kA*eT) [compound 547995]	64%
547950 (eG*eG*kT*dG*dT*dT*dT*dT*d[5mC]*dT*dT*dG*dA*kG*kG*eA; antisense) [compound 547950]	49%

Same assay, conditions: HepaRG cells, electroporation with 1,000 nM antisense oligonucleotide, approximately 24 hours, primer probe set RTS3454, relative to untreated control cells; experiment of Table 24

Substance	% inhibition
548067 (e[5mC]*eA*kG*dT*dT*dG*dG*dT*dA*dT*dA*dA*dA*kT*kT*eG; antisense) [compound 548067]	18%
548057 (e[5mC]*eA*kT*dA*dT*dT*dG*dG*dT*dT*dT*dT*dT*kG*kG*eA; antisense) [compound 548057]	49%
548054 (eA*eA*kT*dT*d[5mC]*dA*dA*dA*dG*dG*dA*dG*d[5mC]*k[5mC]*kT*eG; antisense) [compound 548054]	45%
548027 (eG*eT*kG*dT*d[5mC]*d[5mC]*dT*dA*dT*dG*dA*dG*dT*kG*kA*e[5mC]; antisense) [compound 548027]	18%

Same assay, conditions: PKK mRNA, HepaRG cells, 1,000 nM antisense oligonucleotide; Table 31

Substance	% inhibition
548644 (antisense eA*eA*k[5mC]*dT*dG*dG*dG*d[5mC]*dA*dG*dT*d[5mC]*d[5mC]*kT*kT*e[5mC]) [compound 548644]	14%
548679 (antisense eT*e[5mC]*kT*d[5mC]*dA*dA*dG*d[5mC]*dA*dG*d[5mC]*d[5mC]*dT*kA*kT*eT) [compound 548679]	0%
548642 (antisense eG*e[5mC]*kG*dG*d[5mC]*dA*dG*dT*dA*dG*dT*dG*dA*kA*kT*e[5mC]) [compound 548642]	23%
548616 (antisense eA*eT*kT*dG*dG*dT*dG*dG*d[5mC]*dG*dG*dG*dA*kT*k[5mC]*eG) [compound 548616]	35%

Same assay, conditions: Table 19; HepaRG cells, electroporation with 1,000 nM antisense oligonucleotide, approximately 24 hours; PKK mRNA by RT-PCR (RTS3454), relative to untreated control cells

Substance	% inhibition
548077 (eA*eT*kT*dT*dG*dT*dT*dA*d[5mC]*d[5mC]*dA*dA*dA*kG*kG*eA; antisense) [compound 548077]	51%
548092 (antisense eT*eT*kG*d[5mC]*dA*dA*dA*d[5mC]*dT*dA*dA*dG*dG*kG*kA*e[5mC]) [compound 548092]	30%

Same assay, conditions: Table 20; HepaRG cells, electroporation with 1,000 nM antisense oligonucleotide, approximately 24 hours; PKK mRNA by RT-PCR (RTS3454), relative to untreated control cells

Substance	% inhibition
547863 (antisense eT*eG*kA*d[5mC]*dT*d[5mC]*d[5mC]*dT*d[5mC]*dT*d[5mC]*dA*dT*kA*kT*e[5mC]) [compound 547863]	73%
547906 (eT*eT*kA*d[5mC]*dT*d[5mC]*dA*dG*d[5mC]*dA*d[5mC]*d[5mC]*dT*kT*kT*eA; antisense) [compound 547906]	59%

Same assay, conditions: Table 21 experiment; HepaRG cells, electroporation with 1,000 nM antisense oligonucleotide, approx. 24 hours; PKK mRNA by RT-PCR (RTS3454), relative to untreated control cells

Substance	% inhibition
547812 (eG*eT*kG*d[5mC]*dA*d[5mC]*d[5mC]*dT*d[5mC]*dA*dT*d[5mC]*dT*kG*kG*e[5mC]; antisense) [compound 547812]	51%

Same assay, conditions: Table 22 experiment; HepaRG cells, electroporation with 1,000 nM antisense oligonucleotide, approx. 24 hours; PKK mRNA by RT-PCR (RTS3454), relative to untreated control cells

Substance	% inhibition
547863 (antisense eT*eG*kA*d[5mC]*dT*d[5mC]*d[5mC]*dT*d[5mC]*dT*d[5mC]*dA*dT*kA*kT*e[5mC]) [compound 547863]	77%
547906 (eT*eT*kA*d[5mC]*dT*d[5mC]*dA*dG*d[5mC]*dA*d[5mC]*d[5mC]*dT*kT*kT*eA; antisense) [compound 547906]	70%

Same assay, conditions: Table 27; HepaRG cells, 1,000 nM antisense oligonucleotide; human PKK mRNA

Substance	% inhibition
548323 (e[5mC]*eT*kG*dT*dT*dG*d[5mC]*d[5mC]*dT*dG*dA*d[5mC]*dA*kT*kG*e[5mC]; antisense) [compound 548323]	43%
548368 (eG*eT*kG*dT*dT*d[5mC]*dA*dT*dA*d[5mC]*dG*dG*dA*kA*kG*e[5mC]; antisense) [compound 548368]	59%
548328 (antisense eG*eG*kT*d[5mC]*d[5mC]*dT*dT*dG*dA*dA*d[5mC]*d[5mC]*d[5mC]*k[5mC]*kG*eT) [compound 548328]	68%
548327 (e[5mC]*eT*kA*d[5mC]*dA*d[5mC]*d[5mC]*dT*dT*dT*d[5mC]*dT*dG*k[5mC]*kA*e[5mC]; antisense) [compound 548327]	6%

Same assay, conditions: Table 28; HepaRG cells, 1,000 nM antisense oligonucleotide; human PKK mRNA

Substance	% inhibition
548511 (antisense eA*eG*k[5mC]*dT*dA*dG*d[5mC]*dT*dG*dA*d[5mC]*d[5mC]*d[5mC]*k[5mC]*kA*eA) [compound 548511]	16%
548491 (antisense eT*eG*kG*d[5mC]*d[5mC]*dA*dA*dG*d[5mC]*dA*dA*d[5mC]*d[5mC]*kA*kG*eT) [compound 548491]	57%
548504 (antisense eG*e[5mC]*kA*dG*d[5mC]*dG*dA*dG*d[5mC]*dA*dT*dT*d[5mC]*k[5mC]*kA*eA) [compound 548504]	28%

Same assay, conditions: Table 30; human PKK mRNA, HepaRG cells, 1,000 nM antisense oligonucleotide

Substance	% inhibition
548451 (eG*eT*k[5mC]*d[5mC]*dT*dA*dT*dA*dA*d[5mC]*dT*dA*dT*kA*kA*e[5mC]; antisense) [compound 548451]	0%
548411 (antisense e[5mC]*eA*kG*dT*dA*dT*d[5mC]*dA*d[5mC]*dT*dG*dT*dA*k[5mC]*kT*eA) [compound 548411]	72%
548404 (eG*eA*kG*d[5mC]*d[5mC]*dT*dT*d[5mC]*d[5mC]*dG*d[5mC]*d[5mC]*dT*k[5mC]*kT*e[5mC]; antisense) [compound 548404]	37%
548397 (eG*eG*kA*dG*d[5mC]*dA*dG*dT*dG*d[5mC]*dA*dG*dG*kT*kA*eA; antisense) [compound 548397]	1%
548418 (antisense eT*eA*kT*dA*dT*d[5mC]*dA*d[5mC]*dT*dG*dT*d[5mC]*d[5mC]*kT*kA*eT) [compound 548418]	39%
